Legend:
Assay in all cases: relative viability (nuclei count vs DMSO), 5 days (fraction); higher = more cells survive
[1] = system: CAL-12T
How it was run: (§1)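 Dosing by pin tool came one day after lung cancer cell lines were seeded in 1536-well plates, using either one drug or a fixed anchor-drug dose plus five library-drug doses (not always all listed) in √10 steps. After 5 days, nuclei were counted on 4× images. Relative viability is treated-well nuclei count divided by vehicle-well nuclei count, and values are medians of duplicate plates.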

[2] = system: PC-3 [JPC-3]
How it was run: as §1

[3] = system: NCI-H460
How it was run: as §1

[4] = system: EMC-BAC-2
How it was run: as §1

[5] = system: LU99A
How it was run: as §1

[6] = system: ABC-1
How it was run: as §1

[7] = system: NCI-H1651
How it was run: as §1

[8] = system: BEN
How it was run: as §1

[9] = system: HCC-15
How it was run: as §1

[10] = system: NCI-H2023
How it was run: as §1

[11] = system: NCI-H358
How it was run: as §1

[12] = system: NCI-H520
How it was run: as §1

[13] = system: NCI-H1563
How it was run: as §1

[14] = system: 201T
How it was run: as §1

[15] = system: COR-L 105
How it was run: as §1

[16] = system: NCI-H522
How it was run: as §1

[17] = system: NCI-H727
How it was run: as §1

[18] = system: NCI-H838
How it was run: as §1

[19] = system: EKVX
How it was run: as §1

[20] = system: NCI-H322M
How it was run: as §1

[21] = system: SW 900
How it was run: as §1

[22] = system: LK-2
How it was run: as §1

CCNC(=O)c1noc(-c2cc(C(C)C)c(O)cc2O)c1-c1ccc(CN2CCOCC2)cc1 [Luminespib] + Cc1nc(Nc2ncc(C(=O)Nc3c(C)cccc3Cl)s2)cc(N2CCN(CCO)CC2)n1 [Dasatinib] (partner 0.075 µM)
relative viability ([1]; first compound 0.002 µM): 0.519 | relative viability ([1]; first compound 0.006325 µM): 0.485 | relative viability ([1]; first compound 0.02 µM): 0.147 | relative viability ([1]; first compound 0.06325 µM): 0.0553 | relative viability ([1]; first compound 0.2 µM): 0.0762 | relative viability ([2]; first compound 0.002 µM): 0.99 | relative viability ([2]; first compound 0.006325 µM): 0.945 | relative viability ([2]; first compound 0.02 µM): 0.829 | relative viability ([2]; first compound 0.06325 µM): 0.863 | relative viability ([2]; first compound 0.2 µM): 0.25 | relative viability ([3]; first compound 0.002 µM): 0.462 | relative viability ([3]; first compound 0.006325 µM): 0.481 | relative viability ([3]; first compound 0.02 µM): 0.251 | relative viability ([3]; first compound 0.06325 µM): 0.0185 | relative viability ([3]; first compound 0.2 µM): 0.0168 | relative viability ([4]; first compound 0.002 µM): 0.355 | relative viability ([4]; first compound 0.006325 µM): 0.351 | relative viability ([4]; first compound 0.02 µM): 0.312 | relative viability ([4]; first compound 0.06325 µM): 0.395 | relative viability ([4]; first compound 0.2 µM): 0.172 | relative viability ([5]; first compound 0.002 µM): 0.658 | relative viability ([5]; first compound 0.006325 µM): 0.406 | relative viability ([5]; first compound 0.02 µM): 0.377 | relative viability ([5]; first compound 0.06325 µM): 0.0593 | relative viability ([5]; first compound 0.2 µM): 0.0775 | relative viability ([6]; first compound 0.002 µM): 0.691 | relative viability ([6]; first compound 0.006325 µM): 0.526 | relative viability ([6]; first compound 0.02 µM): 0.446 | relative viability ([6]; first compound 0.06325 µM): 0.197 | relative viability ([6]; first compound 0.2 µM): 0.193 | relative viability ([7]; first compound 0.002 µM): 0.352 | relative viability ([7]; first compound 0.006325 µM): 0.433 | relative viability ([7]; first compound 0.02 µM): 0.331 | relative viability ([7]; first compound 0.06325 µM): 0.132 | relative viability ([7]; first compound 0.2 µM): 0.107 | relative viability ([8]; first compound 0.002 µM): 0.323 | relative viability ([8]; first compound 0.006325 µM): 0.303 | relative viability ([8]; first compound 0.02 µM): 0.263 | relative viability ([8]; first compound 0.06325 µM): 0.334 | relative viability ([8]; first compound 0.2 µM): 0.192 | relative viability ([9]; first compound 0.002 µM): 0.708 | relative viability ([9]; first compound 0.006325 µM): 0.603 | relative viability ([9]; first compound 0.02 µM): 0.61 | relative viability ([9]; first compound 0.06325 µM): 0.084 | relative viability ([9]; first compound 0.2 µM): 0.0846 | relative viability ([10]; first compound 0.002 µM): 0.589 | relative viability ([10]; first compound 0.006325 µM): 0.525 | relative viability ([10]; first compound 0.02 µM): 0.198 | relative viability ([10]; first compound 0.06325 µM): 0.0548 | relative viability ([10]; first compound 0.2 µM): 0.0529 | relative viability ([11]; first compound 0.002 µM): 0.149 | relative viability ([11]; first compound 0.006325 µM): 0.164 | relative viability ([11]; first compound 0.02 µM): 0.0956 | relative viability ([11]; first compound 0.06325 µM): 0.0558 | relative viability ([11]; first compound 0.2 µM): 0.0633 | relative viability ([12]; first compound 0.002 µM): 0.17 | relative viability ([12]; first compound 0.006325 µM): 0.209 | relative viability ([12]; first compound 0.02 µM): 0.198 | relative viability ([12]; first compound 0.06325 µM): 0.151 | relative viability ([12]; first compound 0.2 µM): 0.173 | relative viability ([13]; first compound 0.002 µM): 0.453 | relative viability ([13]; first compound 0.006325 µM): 0.476 | relative viability ([13]; first compound 0.02 µM): 0.394 | relative viability ([13]; first compound 0.06325 µM): 0.353 | relative viability ([13]; first compound 0.2 µM): 0.341 | relative viability ([14]; first compound 0.002 µM): 0.524 | relative viability ([14]; first compound 0.006325 µM): 0.614 | relative viability ([14]; first compound 0.02 µM): 0.506 | relative viability ([14]; first compound 0.06325 µM): 0.569 | relative viability ([14]; first compound 0.2 µM): 0.237 | relative viability ([15]; first compound 0.002 µM): 0.344 | relative viability ([15]; first compound 0.006325 µM): 0.322 | relative viability ([15]; first compound 0.02 µM): 0.248 | relative viability ([15]; first compound 0.06325 µM): 0.157 | relative viability ([15]; first compound 0.2 µM): 0.145 | relative viability ([16]; first compound 0.002 µM): 1.1 | relative viability ([16]; first compound 0.006325 µM): 0.936 | relative viability ([16]; first compound 0.02 µM): 0.776 | relative viability ([16]; first compound 0.06325 µM): 0.577 | relative viability ([16]; first compound 0.2 µM): 0.481 | relative viability ([17]; first compound 0.002 µM): 0.358 | relative viability ([17]; first compound 0.006325 µM): 0.331 | relative viability ([17]; first compound 0.02 µM): 0.257 | relative viability ([17]; first compound 0.06325 µM): 0.278 | relative viability ([17]; first compound 0.2 µM): 0.304 | relative viability ([18]; first compound 0.002 µM): 0.301 | relative viability ([18]; first compound 0.006325 µM): 0.281 | relative viability ([18]; first compound 0.02 µM): 0.233 | relative viability ([18]; first compound 0.06325 µM): 0.189 | relative viability ([18]; first compound 0.2 µM): 0.203 | relative viability ([19]; first compound 0.002 µM): 0.311 | relative viability ([19]; first compound 0.006325 µM): 0.509 | relative viability ([19]; first compound 0.02 µM): 0.403 | relative viability ([19]; first compound 0.06325 µM): 0.515 | relative viability ([19]; first compound 0.2 µM): 0.393 | relative viability ([20]; first compound 0.002 µM): 0.234 | relative viability ([20]; first compound 0.006325 µM): 0.262 | relative viability ([20]; first compound 0.02 µM): 0.215 | relative viability ([20]; first compound 0.06325 µM): 0.268 | relative viability ([20]; first compound 0.2 µM): 0.276 | relative viability ([21]; first compound 0.002 µM): 0.741 | relative viability ([21]; first compound 0.006325 µM): 0.722 | relative viability ([21]; first compound 0.02 µM): 0.227 | relative viability ([21]; first compound 0.06325 µM): 0.0874 | relative viability ([21]; first compound 0.2 µM): 0.109 | relative viability ([22]; first compound 0.002 µM): 0.267 | relative viability ([22]; first compound 0.006325 µM): 0.293 | relative viability ([22]; first compound 0.02 µM): 0.251 | relative viability ([22]; first compound 0.06325 µM): 0.146 | relative viability ([22]; first compound 0.2 µM): 0.128

Source: the supplement of paper PMC10307832
